This data set in a line: Determination of stilbene uptake (steady-state levels by GC-MS). Format: in vivo, Caenorhabditis elegans. The settings on record: animals treated for 2 days with 100 μM in the culture medium. An excerpt: The differential bioactivities of methoxylated and hydroxylated stilbenes in C. elegans adults might reflect differences in uptake or bioavailability. In general, intact C. elegans adults take up compounds relatively poorly due to their thick, impermeable cuticle. This impermeability has impeded pharmacodynamic analysis in this organism. However, steady-state levels of compounds can be measured in treated animals to provide one measure of pharmacodynamics. To assess whether differential uptake correlated with bioactivity in C. elegans, steady-state levels for pterostilbene, resveratrol-trimethylether and desoxyrhapontigenin were determined in animals treated for 2 days with 100 μM of each compound in the culture medium. […] These concentrations were within the range of serum stilbene levels detected after dietary stilbene supplementation with human volunteers (approx. 2 μM) and rabbits (42.8 μM). […]
Uptake was determined for three stilbenes (desoxyrhapontigenin, pterostilbene and resveratrol-trimethylether) by measuring the steady-state levels of each stilbene in adult fem-1(hc17) hermaphrodites treated under the same conditions as those used for survival assays. […] Derivatized sample was analyzed for stilbenes by gas chromatography-mass spectrometry (GC-MS). […] Quantitation was performed from calibration curve of authentic stilbene samples. […]

Each structure is given as a SMILES string.

As to `COc1ccc(/C=C/c2cc(OC)cc(OC)c2)cc1` [Resveratrol-trimethylether, resveratrol-trimethylether], the “steady-state level relative to pterostilbene” value is listed as “less than one-third the level of pterostilbene”.

For the origin of these results see PMC2532997, “Methoxylation enhances stilbene bioactivity in Caenorhabditis elegans” (BMC Pharmacology, 2008).
